Test results reported in patent EP0470144B1, “BETA-HYDROXAMATE D-ASPARTIC ACID FOR TREATMENT OF VIRAL INFECTIONS AND TUMOURS” (priority 1989, dated 1990).

Experiments:
leucémie L1210 = experiment: Antitumour activity in the L1210 leukaemia model, survival; type: in vivo, souris B6D2F1/J; conditions: for Nombre d'animaux survivants: at 30 days
Source text: L'activité antitumorale du DAH et du LAH a été étudiée sur le modèle de leucémie L1210. Les cellules leucémiques L1210 sont maintenues par passages intrapéritonéaux dans la souris B6D2F1/J mâle. […] La durée d'observation est de 30 jours.

[1] = LD50 comparison of DAH and LAH; conditions: in vivo

N[C@@H](CC(=O)NO)C(=O)O [LAH, L-aspartique acide β hydroxamate, reference compound]
T/Cx100 (leucémie L1210; 1,5 g/kg x4/j, day 1): 50%
Nombre d'animaux survivants (leucémie L1210; 1,5 g/kg x4/j, day 1): 0/5
T/Cx100 (leucémie L1210; 1 g/kg x4/j, days 1,2): 65%
Nombre d'animaux survivants (leucémie L1210; 1 g/kg x4/j, days 1,2): 0/5
activité antitumorale (leucémie L1210; lighter protocol than for DAH): on n'a pas observé d'activité antitumorale
toxicité (leucémie L1210; lighter protocol, treated animals died before the control group): toxicité très importante
toxicité (leucémie L1210; same dosage conditions as DAH (1 g/kg, 4 times a day, 3 days)): très toxique
DL 50 % [1]: 2,5 g/kg
